Measurements taken from patent US6967215B2, “Tetrahydrocarbazoles, a process for the preparation of those compounds, and the use thereof” (Ciba Specialty Chemicals Corporation, priority 2000, dated 2005).
Each block holds one compound with its values, some of them ahead of it.

What was measured:
Experiment in all cases: MIC, microtitre dilution test (growth by optical density at 620 nm)
Format in all cases: cell-based
[1] = tested on: Escherichia coli NCTC 8196; conditions: for MIC [ppm] E. coil: Table 5
Method: (§1) Casein/soybean flour peptone bouillon for the preparation of pre-cultures of the test bacteria and yeast.
(§2) The test substances are predissolved in dimethyl sulfoxide (DMSO) and tested in a dilution series of 1:2.
(§3) Bacteria and yeast are cultured overnight in CASO bouillon, the mould is cultured overnight on mycological slant agar, and washed off with 10 ml of 0.85% sodium chloride solution (+0.1% TritonX-100).
(§4) All the test organisms are adjusted to an organism count of 1-5×10^6 CFU/ml using 0.85% sodium chloride solution.
(§5) The test substances are pre-pipetted into microtitre plates in an amount of 8 μl per well.
(§6) Pre-diluted organism suspensions are diluted 1:100 in CASO bouillon (bacteria and yeast) or Sabouraud 2% glucose bouillon (mould) and are added in an amount of 192 μl per well to the test substances.
(§7) The test batches are incubated for 48 hours at 37° C. (bacteria and yeast) or for 5 days at 28° C. (mould).
(§8) After incubation, the growth is evaluated by reference to the turbidity of the test batches (optical density) at 620 nm in a microplate reader.
(§9) The minimum inhibitory concentration (MIC value) is the concentration of substance at which (compared with the growth of the control) an appreciable inhibition of growth (≦20% growth) of the test organisms is ascertained.
(§10) One microtitre plate is used for each test organism and substance concentration. All the substances are tested in duplicate.

[2] = tested on: Staphylococcus hominis DMS 20328
Method: as §1, §2, §3, §4, §5, §6, §7, §8, §9, §10

[3] = tested on: Aspergillus niger ATCC 6175; conditions: Table 5
Method: (§11) Nutrient: Mycological slant agar for the pre-culture of moulds [table] The test substances are predissolved in dimethyl sulfoxide (DMSO) and tested in a dilution series of 1:2. Bacteria and yeast are cultured overnight in CASO bouillon, the mould is cultured overnight on mycological slant agar, and washed off with 10 ml of 0.85% sodium chloride solution (+0.1% TritonX-100). All the test organisms are adjusted to an organism count of 1-5×10^6 CFU/ml using 0.85% sodium chloride solution. The test substances are pre-pipetted into microtitre plates in an amount of 8 μl per well. Pre-diluted organism suspensions are diluted 1:100 in CASO bouillon (bacteria and yeast) or Sabouraud 2% glucose bouillon (mould) and are added in an amount of 192 μl per well to the test substances. The test batches are incubated for 48 hours at 37° C. (bacteria and yeast) or for 5 days at 28° C. (mould). After incubation, the growth is evaluated by reference to the turbidity of the test batches (optical density) at 620 nm in a microplate reader. The minimum inhibitory concentration (MIC value) is the concentration of substance at which (compared with the growth of the control) an appreciable inhibition of growth (≦20% growth) of the test organisms is ascertained. One microtitre plate is used for each test organism and substance concentration. All the substances are tested in duplicate.

[4] = tested on: P. aeruginosa; conditions: Table 5
Method: as §11, with “All” for “Nutrient: Mycological slant agar for the pre-culture of moulds [table] The test substances are predissolved in dimethyl sulfoxide (DMSO) and tested in a dilution series of 1:2. Bacteria and yeast are cultured overnight in CASO bouillon, the mould is cultured overnight on mycological slant agar, and washed off with 10 ml of 0.85% sodium chloride solution (+0.1% TritonX-100). All”

[5] = Table 2, Staphylococcus hominis DMS 20328

Structure (SMILES): CCCN1CCC2c3c([nH]c4c(OC)cccc34)C3C(=O)NC(=O)C3C2C1 (centres unmarked) [Compound 229]
- MIC [ppm] E. coil [1]: >120 ppm
- MIC [ppm] S. hominis ([2]; Table 5): >120 ppm
- MIC [ppm] A. niger [3]: >120 ppm
- MIC [ppm] P. aeruginosa [4]: >120 ppm

Structure (SMILES): COc1cccc2[nH]c3c(c12)C1CCCCCCCCCCC1C1C(=O)NC(=O)C31 (centres unmarked) [Compound 188]
- MIC [ppm] E. coil [1]: >120 ppm
- MIC [ppm] S. hominis ([2]; Table 5): 15 ppm
- MIC [ppm] A. niger [3]: >120 ppm
- MIC [ppm] P. aeruginosa [4]: >120 ppm

Structure (SMILES): O=C1NC(=O)C2C1c1[nH]c3ccccc3c1C1CC3CCCCC3CC12 (centres unmarked) [Compound 183]
- MIC [ppm] E. coil [1]: >120 ppm
- MIC [ppm] S. hominis ([2]; Table 5): 15 ppm
- MIC [ppm] A. niger [3]: >120 ppm
- MIC [ppm] P. aeruginosa [4]: >120 ppm

Structure (SMILES): CCCN1CCC2c3c([nH]c4cccc(Cl)c34)C3C(=O)NC(=O)C3C2C1 (centres unmarked) [Compound 224]
- MIC [ppm] E. coil [1]: >120 ppm
- MIC [ppm] S. hominis ([2]; Table 5): >120 ppm
- MIC [ppm] A. niger [3]: >120 ppm
- MIC [ppm] P. aeruginosa [4]: 120 ppm

Structure (SMILES): CCCN1CCC2c3c([nH]c4cccc(C(=O)OC)c34)C3C(=O)NC(=O)C3C2C1 (centres unmarked) [Compound 201]
- MIC [ppm] E. coil [1]: >120 ppm
- MIC [ppm] S. hominis ([2]; Table 5): >120 ppm
- MIC [ppm] A. niger [3]: >120 ppm
- MIC [ppm] P. aeruginosa [4]: 60 ppm

Structure (SMILES): Cn1c2c(c3ccccc31)C1CC(C)(C)NC(C)(C)C1C1C(=O)N(c3ccccc3)C(=O)C21 (centres unmarked) [Compound 24]
- MIC [ppm] E. coli ([1]; Table 2, Escherichia coli): >120 ppm
- MIC [ppm] S. hominis [2, 5]: >120 ppm

Structure (SMILES): CC(C)(C)C1CCC2c3c([nH]c4ccccc34)C3C(=O)N(c4ccccc4)C(=O)C3C2C1 (centres unmarked) [Compound 13]
- MIC [ppm] E. coli ([1]; Table 2, Escherichia coli): >120 ppm
- MIC [ppm] S. hominis [2, 5]: >120 ppm

Structure (SMILES): CCc1cccc2c3c([nH]c12)C1C(=O)NC(=O)C1C1CCCCCC31 (centres unmarked) [Compound 77]
- MIC [ppm] E. coli ([1]; Table 2, Escherichia coli): >120 ppm
- MIC [ppm] S. hominis [2, 5]: 15 ppm

Structure (SMILES): CC(C)(C)C1CCC2c3c([nH]c4ccc(Br)cc34)C3C(=O)NC(=O)C3C2C1 (centres unmarked) [Compound 31]
- MIC [ppm] E. coli ([1]; Table 2, Escherichia coli): >120 ppm
- MIC [ppm] S. hominis [2, 5]: 15 ppm

Structure (SMILES): CCCC1CCC2c3c([nH]c4ccc(OC)cc34)C3C(=O)N(C)C(=O)C3C2C1 (centres unmarked) [Compound 174]
- MIC [ppm] E. coli ([1]; Table 2, Escherichia coli): >120 ppm
- MIC [ppm] S. hominis [2, 5]: 30 ppm

Structure (SMILES): COc1ccc2[nH]c3c(c2c1)C1CCCCC1C1C(=O)N(C)C(=O)C31 (centres unmarked) [Compound 164]
- MIC [ppm] E. coli ([1]; Table 2, Escherichia coli): >120 ppm
- MIC [ppm] S. hominis [2, 5]: >120 ppm

Structure (SMILES): Cn1c2c(c3ccccc31)C1CCC(C(C)(C)C)CC1C1C(=O)NC(=O)C21 (centres unmarked) [Compound 36]
- MIC [ppm] E. coli ([1]; Table 2, Escherichia coli): >120 ppm
- MIC [ppm] S. hominis [2, 5]: >120 ppm

Structure (SMILES): COc1ccc2[nH]c3c(c2c1)C1CC(C)(C)NC(C)(C)C1C1C(=O)N(C)C(=O)C31 (centres unmarked) [Compound 168]
- MIC [ppm] E. coli ([1]; Table 2, Escherichia coli): >120 ppm
- MIC [ppm] S. hominis [2, 5]: >120 ppm

Structure (SMILES): CC(C)N1CCC2c3c([nH]c4ccccc34)C3C(=O)N(C)C(=O)C3C2C1 (centres unmarked) [Compound 116]
- MIC [ppm] E. coli ([1]; Table 2, Escherichia coli): >120 ppm
- MIC [ppm] S. hominis [2, 5]: 120 ppm

Structure (SMILES): CCOC(=O)N1CCC2c3c([nH]c4ccccc34)C3C(=O)N(c4ccccc4)C(=O)C3C2C1 (centres unmarked) [Compound 52]
- MIC [ppm] E. coli ([1]; Table 2, Escherichia coli): >120 ppm
- MIC [ppm] S. hominis [2, 5]: >120 ppm

Structure (SMILES): COc1ccc2[nH]c3c(c2c1)C1CCCC1C1C(=O)NC(=O)C31 (centres unmarked) [Compound 92]
- MIC [ppm] E. coli ([1]; Table 2, Escherichia coli): >120 ppm
- MIC [ppm] S. hominis [2, 5]: >120 ppm

Structure (SMILES): CN1C(=O)C2c3[nH]c4ccccc4c3C3CC(C)(C)CC(C)(C)C3C2C1=O (centres unmarked) [Compound 126]
- MIC [ppm] E. coli ([1]; Table 2, Escherichia coli): >120 ppm
- MIC [ppm] S. hominis [2, 5]: >120 ppm

Structure (SMILES): Cn1c2c(c3ccccc31)C1CCC(C(C)(C)C)CC1C1C(=O)N(c3ccccc3)C(=O)C21 (centres unmarked) [Compound 22]
- MIC [ppm] E. coli ([1]; Table 2, Escherichia coli): >120 ppm
- MIC [ppm] S. hominis [2, 5]: >120 ppm

Structure (SMILES): O=C1NC(=O)C2C1c1[nH]c3ccc(Br)cc3c1C1CCCCCCC12 (centres unmarked) [Compound 73]
- MIC [ppm] E. coli ([1]; Table 2, Escherichia coli): >120 ppm
- MIC [ppm] S. hominis [2, 5]: 60 ppm

Structure (SMILES): CCc1cccc2c3c([nH]c12)C1C(=O)NC(=O)C1C1C3CC(C)(C)CC1(C)C (centres unmarked) [Compound 90]
- MIC [ppm] E. coli ([1]; Table 2, Escherichia coli): >120 ppm
- MIC [ppm] S. hominis [2, 5]: >120 ppm

Structure (SMILES): CCC(C)(C)C1CCC2c3c([nH]c4ccc(OC)cc34)C3C(=O)NC(=O)C3C2C1 (centres unmarked) [Compound 102]
- MIC [ppm] E. coli ([1]; Table 2, Escherichia coli): >120 ppm
- MIC [ppm] S. hominis [2, 5]: 60 ppm

Structure (SMILES): COc1ccc2[nH]c3c(c2c1)C1CCN(C)CC1C1C(=O)N(C)C(=O)C31 (centres unmarked) [Compound 178]
- MIC [ppm] E. coli ([1]; Table 2, Escherichia coli): >120 ppm
- MIC [ppm] S. hominis [2, 5]: >120 ppm

Now from value to compound:

- MIC [ppm] E. coil [1]: >120 ppm
- MIC [ppm] S. hominis ([2]; Table 5): 120 ppm
- MIC [ppm] A. niger [3]: >120 ppm
- MIC [ppm] P. aeruginosa [4]: >120 ppm
Structure (SMILES): CCCN1CCC2c3c([nH]c4cc(Cl)ccc34)C3C(=O)NC(=O)C3C2C1 (centres unmarked) [Compound 199]

- MIC [ppm] E. coli ([1]; Table 2, Escherichia coli): >120 ppm
- MIC [ppm] S. hominis [2, 5]: >120 ppm
Structure (SMILES): CCN1C(=O)C2c3[nH]c4ccc(Br)cc4c3C3CCC(C(C)(C)C)CC3C2C1=O (centres unmarked) [Compound 44]

- MIC [ppm] E. coli ([1]; Table 2, Escherichia coli): >120 ppm
- MIC [ppm] S. hominis [2, 5]: >120 ppm
Structure (SMILES): CCN1CCC2c3c([nH]c4ccc(OC)cc34)C3C(=O)NC(=O)C3C2C1 (centres unmarked) [Compound 103]

- MIC ([1]; NCTC8196, Table 2, Escherichia coli, read-out: MIC [ppm] E. coli): > 120 µg/mL
- MIC ([2]; DMS20328, Table 2, Staphylococcus hominis DMS 20328, read-out: MIC [ppm] S. hominis): > 120 µg/mL
Structure (SMILES): CC1CCC2C(C1)c1c([nH]c3ccccc13)C1C(=O)N(C)C(=O)C12 (centres unmarked) [Compound 117]

- MIC [ppm] E. coli ([1]; Table 2, Escherichia coli): >120 ppm
- MIC [ppm] S. hominis [2, 5]: 30 ppm
Structure (SMILES): CCC(C)(C)C1CCC2c3c([nH]c4ccccc34)C3C(=O)N(C)C(=O)C3C2C1 (centres unmarked) [Compound 120]

- MIC [ppm] E. coli ([1]; Table 2, Escherichia coli): >120 ppm
- MIC [ppm] S. hominis [2, 5]: 120 ppm
Structure (SMILES): COc1ccc2[nH]c3c(c2c1)C1CCCC1C1C(=O)N(C)C(=O)C31 (centres unmarked) [Compound 165]

- MIC [ppm] E. coli ([1]; Table 2, Escherichia coli): >120 ppm
- MIC [ppm] S. hominis [2, 5]: 7.5 ppm
Structure (SMILES): CCc1cccc2c3c([nH]c12)C1C(=O)NC(=O)C1C1CCCCCCC31 (centres unmarked) [Compound 89]

- MIC [ppm] E. coli ([1]; Table 2, Escherichia coli): 120 ppm
- MIC [ppm] S. hominis [2, 5]: >120 ppm
Structure (SMILES): CN1CCC2c3c([nH]c4ccccc34)C3C(=O)N(C)C(=O)C3C2C1 (centres unmarked) [Compound 123]

- MIC [ppm] E. coli ([1]; Table 2, Escherichia coli): >120 ppm
- MIC [ppm] S. hominis [2, 5]: >120 ppm
Structure (SMILES): CCCN1CCC2c3c([nH]c4ccccc34)C3C(=O)N(CC)C(=O)C3C2C1 (centres unmarked) [Compound 41]

- MIC [ppm] E. coli ([1]; Table 2, Escherichia coli): >120 ppm
- MIC [ppm] S. hominis [2, 5]: >120 ppm
Structure (SMILES): CC(C)N1CCC2c3c([nH]c4ccccc34)C3C(=O)NC(=O)C3C2C1 (centres unmarked) [Compound 55]

- MIC [ppm] E. coli ([1]; Table 2, Escherichia coli): >120 ppm
- MIC [ppm] S. hominis [2, 5]: 120 ppm
Structure (SMILES): O=C1NC(=O)C2C1c1[nH]c3ccccc3c1C1CCN(Cc3ccccc3)CC12 (centres unmarked) [Compound 60]

- MIC [ppm] E. coli ([1]; Table 2, Escherichia coli): >120 ppm
- MIC [ppm] S. hominis [2, 5]: >120 ppm
Structure (SMILES): CCOC(=O)N1CCC2c3c([nH]c4ccc(Br)cc34)C3C(=O)NC(=O)C3C2C1 (centres unmarked) [Compound 68]
